According to the supplement of paper PMC10307832:

Legend:
Assay in all cases: relative viability (nuclei count vs DMSO), 5 days (fraction); higher = more cells survive
[1] = compound: C1CC(C2=C(C1)C3=C(N2)C=CC(=C3)Cl)C(=O)N [Selisistat] + C[C@@H](Oc1cc(-c2cnn(C3CCNCC3)c2)cnc1N)c1c(Cl)ccc(F)c1Cl [Crizotinib] (partner 1 µM)
In short: (§1)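 For relative viability, nuclei counts in treated wells were divided by those in vehicle wells. Lung cancer cell lines had been pin-tool dosed in 1536-well plates the day after seeding and cultured for 5 days, then fixed and stained in one step (final 0.05% Triton X-100, 1% formaldehyde, 1 ug/ml Hoechst) and imaged at 4×. Doses were one drug alone or a fixed anchor-drug dose plus five library-drug doses (not always all listed) in √10 steps, and values are duplicate-plate medians.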

[2] = compound: C1CC(C2=C(C1)C3=C(N2)C=CC(=C3)Cl)C(=O)N [Selisistat] + COc1cccc2cc(-c3nc([C@H]4CC[C@H](C(=O)O)CC4)n4ncnc(N)c34)[nH]c12 [OSI-027] (partner 0.5 µM)
In short: as §1

[3] = compound: c1ccc2c(CCNc3ccc(Nc4ccncc4)cc3)c[nH]c2c1 [Serdemetan] + Nc1nc2[nH]cc(CCc3ccc(C(=O)N[C@@H](CCC(=O)O)C(=O)O)cc3)c2c(=O)[nH]1 [Pemetrexed] (partner 0.2 µM)
In short: as §1

[4] = compound: c1ccc2c(CCNc3ccc(Nc4ccncc4)cc3)c[nH]c2c1 [Serdemetan] + N=C(N)NC(=N)NCCc1ccccc1 [Phenformin] (partner 250 µM)
In short: as §1

UMC-11
relative viability ([1]; first compound 0.4 µM): 0.812
relative viability ([1]; first compound 1.265 µM): 0.653
relative viability ([1]; first compound 4 µM): 0.683
relative viability ([1]; first compound 12.65 µM): 0.69
relative viability ([1]; first compound 40 µM): 0.577
relative viability ([2]; first compound 0.4 µM): 0.498
relative viability ([2]; first compound 1.265 µM): 0.398
relative viability ([2]; first compound 4 µM): 0.385
relative viability ([2]; first compound 12.65 µM): 0.476
relative viability ([2]; first compound 40 µM): 0.46
relative viability ([3]; first compound 0.04 µM): 0.776
relative viability ([3]; first compound 0.1265 µM): 0.718
relative viability ([3]; first compound 0.4 µM): 0.689
relative viability ([3]; first compound 1.265 µM): 0.666
relative viability ([3]; first compound 4 µM): 0.586
relative viability ([4]; first compound 0.04 µM): 0.312
relative viability ([4]; first compound 0.1265 µM): 0.31
relative viability ([4]; first compound 4 µM): 0.321
